Entries after “also recorded” stand apart in the source; their conditions may differ.
Experiments:
[1] = test system: adult mouse heart following myocardial infarction; assay: Echocardiography after adult MI, malonate treatment starting 1-week post-MI; details: adult mice, malonate group, mean ± SE
Text: (§1) Adult male mice (8-week-old) were subjected to MI by ligation of the proximal aspect of the LAD coronary artery. In brief, mice were anaesthetized using 3% isoflurane, then mice were intubated with PE50 tubing and placed on a mouse ventilator at 120-130 breaths per minute with a stroke volume of 150 microliters and maintained on 2% isoflurane. A left lateral incision through the fourth intercostal space was made to expose the heart. After visualizing the left coronary artery, 7-0 suture was placed through the myocardium in the anterolateral wall and secured as previously describer^17,18. Coronary artery entrapment was confirmed by observing blanching of the distal circulation (ventricular apex). ECG was used to confirm MI by noting ST segment changes. The lungs were over inflated, and the ribs and muscle layers were closed by absorbable sutures. The skin is closed by additional suturing using 6-0 nylon. The mouse was recovered from the anesthesia and extubated.
Saline was used as a vehicle control for all experiments. […] Adult mice were injected intraperitoneally daily with either saline or 100 mg/kg dimethyl malonate post-MI for 2 or 4 weeks.
Transthoracic echocardiography was performed by using a Visual Sonics 770 ultrasonograph with a 25-MHz transducer (Visual Sonics, Toronto) as described previously^19. Mice were lightly anesthetized with 1% isoflurane and maintained on a heated platform. Two-dimensionally guided M-mode images from a parasternal long axis (PLAX) of the left ventricle (LV) were acquired at the tip of the papillary muscles. Wall thickness and chamber diameters were measured in both diastole and systole. Fractional shortening was calculated as (LVDd−LVDs)/LVDd×100, where LVDd is LV diameter in diastole and LVDs is LV diameter in systole. Ejection fraction was calculated as [(7.0/(2.4+LVDd)(LVDd)^3−(7.0/(2.4+LVDs)(LVDs)^3/(7.0/(2.4+LVDd)(LVDd)^3×100 and LV mass was calculated by using the formula [1.05×((Posterior Walldiastole+Anterior Walldiastole+LVDd)^3−(LVDd)^3)]. All parameters were measured over at least three consecutive cycles.
To determine whether SDH inhibitors can promote a regenerative response following the establishment of infarction, we performed MI in 8-week-old mice and started malonate treatment at 1-week post-MI (FIG. 20A). […] Mice were then randomized and treated with saline or malonate for a period of 4 weeks, and hearts were harvested at 6 weeks post-MI (FIG. 20A).

[2] = test system: adult mouse heart following myocardial infarction; assay: Echocardiography after adult myocardial infarction, malonate from within an hour post-MI for two weeks; assay type: in vivo; details: for % EF (Ejection Fraction) / % FS (Fractional Shortening) / LV Mass (Left Ventricular Mass, Anatomical Weight) / LV Vol; d (Left Ventricular Volume; diastole) / LV Vol; s (Left Ventricular Volume; systole) / LVAWD (Left Ventricle Anterior Wall Thickness Diastole) / LVAWS (Left Ventricle Anterior Wall Thickness Systole) / LVIDD (Left Ventricle Internal Diameter Diastole) / LVIDS (Left Ventricle Internal Diameter Systole) / LVPWD (Left Ventricle Posterior Wall Thickness Diastole) / LVPWS (Left Ventricle Posterior Wall Thickness Systole): adult mice, mean ± SE
[3] = test system: adult mouse heart following myocardial infarction; assay: Trichrome staining after adult MI, malonate treatment starting 1-week post-MI; details: malonate for 4 weeks starting 1-week post-MI, 6 weeks post-MI
Text: as §1
Saline was used as a vehicle control for all experiments. […]
Hearts were harvested and fixed in 4% paraformaldehyde (PFA) in PBS solution overnight at 4° C., processed for paraffin embedding, and sectioned in intervals. […] Scar size measurements were quantified from at least 3 sections of the heart from ligature to apex. ImageJ was used to quantify the fibrotic scar, and the average scar area for each heart was plotted. […]

[4] = MI, 1 WPMI (before start of dosing)
[5] = Baseline before surgery and dosing (same values as saline Table 4A)
[6] = MI, 14 DPMI, dimethyl malonate 100 mg/kg intraperitoneally daily for 2 weeks post-MI
[7] = MI, 28 DPMI, dimethyl malonate 100 mg/kg intraperitoneally daily for 2 weeks post-MI
[8] = sham (SH), 14 DPMI, dimethyl malonate 100 mg/kg intraperitoneally daily for 2 weeks
[9] = sham (SH), 28 DPMI, dimethyl malonate 100 mg/kg intraperitoneally daily for 2 weeks

COC(=O)CC(=O)OC [Malonate, dimethyl malonate]
LVAWD (Left Ventricle Anterior Wall Thickness Diastole) [1, 4]: 0.651 ± 0.018 mm
LVAWS (Left Ventricle Anterior Wall Thickness Systole) [1, 4]: 0.788 ± 0.016 mm
LVIDD (Left Ventricle Internal Diameter Diastole) [1, 4]: 4.329 ± 0.343 mm
LVIDS (Left Ventricle Internal Diameter Systole) [1, 4]: 3.603 ± 0.326 mm
LVPWD (Left Ventricle Posterior Wall Thickness Diastole) [1, 4]: 0.665 ± 0.033 mm
LVPWS (Left Ventricle Posterior Wall Thickness Systole) [1, 4]: 0.838 ± 0.025 mm
% EF (Ejection Fraction) ([1]; Pre (before MI and dosing)): 69.832 ± 3.238%
% FS (Fractional Shortening) ([1]; Pre (before MI and dosing)): 38.447 ± 2.452%
LV Mass (Left Ventricular Mass, Anatomical Weight) ([1]; Pre (before MI and dosing)): 59.124 ± 6.101 mg
LV Vol; d (Left Ventricular Volume; diastole) ([1]; Pre (before MI and dosing)): 32.452 ± 4.967 µL
LV Vol; s (Left Ventricular Volume; systole) ([1]; Pre (before MI and dosing)): 10.208 ± 2.260 µL
LVAWD (Left Ventricle Anterior Wall Thickness Diastole) ([1]; Pre (before MI and dosing)): 0.704 ± 0.023 mm
LVAWS (Left Ventricle Anterior Wall Thickness Systole) ([1]; Pre (before MI and dosing)): 0.838 ± 0.024 mm
LVIDD (Left Ventricle Internal Diameter Diastole) ([1]; Pre (before MI and dosing)): 2.872 ± 0.174 mm
LVIDS (Left Ventricle Internal Diameter Systole) ([1]; Pre (before MI and dosing)): 1.779 ± 0.158 mm
LVPWD (Left Ventricle Posterior Wall Thickness Diastole) ([1]; Pre (before MI and dosing)): 0.717 ± 0.020 mm
LVPWS (Left Ventricle Posterior Wall Thickness Systole) ([1]; Pre (before MI and dosing)): 0.829 ± 0.017 mm
cardiac function by echocardiography (EF and FS) ([2]; adult MI, dimethyl malonate 100 mg/kg daily for 2 weeks, 28 days post-MI, vs saline): complete restoration of cardiac function; also recorded: significant improvement of cardiac function
cardiac function by echocardiography ([2]; adult MI, dimethyl malonate 100 mg/kg daily, 14 days post-MI, vs controls, difference was not significant): trending improvement in cardiac function
% EF (Ejection Fraction) [2, 5]: 57.761 ± 0.698%
% FS (Fractional Shortening) [2, 5]: 29.844 ± 0.434%
LV Mass (Left Ventricular Mass, Anatomical Weight) [2, 5]: 78.043 ± 3.706 mg
LV Vol; d (Left Ventricular Volume; diastole) [2, 5]: 59.761 ± 3.319 µL
LV Vol; s (Left Ventricular Volume; systole) [2, 5]: 25.363 ± 1.705 µL
LVAWD (Left Ventricle Anterior Wall Thickness Diastole) [2, 5]: 0.641 ± 0.006 mm
LVAWS (Left Ventricle Anterior Wall Thickness Systole) [2, 5]: 0.767 ± 0.005 mm
LVIDD (Left Ventricle Internal Diameter Diastole) [2, 5]: 3.731 ± 0.086 mm
LVIDS (Left Ventricle Internal Diameter Systole) [2, 5]: 2.619 ± 0.072 mm
LVPWD (Left Ventricle Posterior Wall Thickness Diastole) [2, 5]: 0.639 ± 0.006 mm
LVPWS (Left Ventricle Posterior Wall Thickness Systole) [2, 5]: 0.769 ± 0.005 mm
% EF (Ejection Fraction) [2, 6]: 44.421 ± 5.272%
% FS (Fractional Shortening) [2, 6]: 22.034 ± 2.951%
LV Mass (Left Ventricular Mass, Anatomical Weight) [2, 6]: 80.024 ± 8.731 mg
LV Vol; d (Left Ventricular Volume; diastole) [2, 6]: 74.738 ± 12.392 µL
LV Vol; s (Left Ventricular Volume; systole) [2, 6]: 44.249 ± 11.125 µL
LVAWD (Left Ventricle Anterior Wall Thickness Diastole) [2, 6]: 0.583 ± 0.015 mm
LVAWS (Left Ventricle Anterior Wall Thickness Systole) [2, 6]: 0.723 ± 0.020 mm
LVIDD (Left Ventricle Internal Diameter Diastole) [2, 6]: 4.047 ± 0.283 mm
LVIDS (Left Ventricle Internal Diameter Systole) [2, 6]: 3.188 ± 0.334 mm
LVPWD (Left Ventricle Posterior Wall Thickness Diastole) [2, 6]: 0.578 ± 0.014 mm
LVPWS (Left Ventricle Posterior Wall Thickness Systole) [2, 6]: 0.753 ± 0.016 mm
% EF (Ejection Fraction) [2, 7]: 48.940 ± 5.707%
% FS (Fractional Shortening) [2, 7]: 24.858 ± 3.214%
LV Mass (Left Ventricular Mass, Anatomical Weight) [2, 7]: 83.201 ± 16.390 mg
LV Vol; d (Left Ventricular Volume; diastole) [2, 7]: 84.656 ± 22.884 µL
LV Vol; s (Left Ventricular Volume; systole) [2, 7]: 47.375 ± 16.164 µL
LVAWD (Left Ventricle Anterior Wall Thickness Diastole) [2, 7]: 0.528 ± 0.033 mm
LVAWS (Left Ventricle Anterior Wall Thickness Systole) [2, 7]: 0.693 ± 0.042 mm
LVIDD (Left Ventricle Internal Diameter Diastole) [2, 7]: 4.183 ± 0.448 mm
LVIDS (Left Ventricle Internal Diameter Systole) [2, 7]: 3.193 ± 0.451 mm
LVPWD (Left Ventricle Posterior Wall Thickness Diastole) [2, 7]: 0.600 ± 0.020 mm
LVPWS (Left Ventricle Posterior Wall Thickness Systole) [2, 7]: 0.755 ± 0.017 mm
% EF (Ejection Fraction) [2, 8]: 52.458 ± 2.795%
% FS (Fractional Shortening) [2, 8]: 26.613 ± 1.724%
LV Mass (Left Ventricular Mass, Anatomical Weight) [2, 8]: 78.241 ± 13.192 mg
LV Vol; d (Left Ventricular Volume; diastole) [2, 8]: 71.304 ± 10.106 µL
LV Vol; s (Left Ventricular Volume; systole) [2, 8]: 33.993 ± 5.072 µL
LVAWD (Left Ventricle Anterior Wall Thickness Diastole) [2, 8]: 0.575 ± 0.045 mm
LVAWS (Left Ventricle Anterior Wall Thickness Systole) [2, 8]: 0.723 ± 0.047 mm
LVIDD (Left Ventricle Internal Diameter Diastole) [2, 8]: 4.005 ± 0.234 mm
LVIDS (Left Ventricle Internal Diameter Systole) [2, 8]: 2.940 ± 0.188 mm
LVPWD (Left Ventricle Posterior Wall Thickness Diastole) [2, 8]: 0.575 ± 0.035 mm
LVPWS (Left Ventricle Posterior Wall Thickness Systole) [2, 8]: 0.733 ± 0.046 mm
% EF (Ejection Fraction) [2, 9]: 48.208 ± 3.686%
% FS (Fractional Shortening) [2, 9]: 24.032 ± 2.173%
LV Mass (Left Ventricular Mass, Anatomical Weight) [2, 9]: 82.315 ± 5.106 mg
LV Vol; d (Left Ventricular Volume; diastole) [2, 9]: 68.006 ± 5.647 µL
LV Vol; s (Left Ventricular Volume; systole) [2, 9]: 35.538 ± 4.993 µL
LVAWD (Left Ventricle Anterior Wall Thickness Diastole) [2, 9]: 0.623 ± 0.014 mm
LVAWS (Left Ventricle Anterior Wall Thickness Systole) [2, 9]: 0.755 ± 0.010 mm
LVIDD (Left Ventricle Internal Diameter Diastole) [2, 9]: 3.940 ± 0.137 mm
LVIDS (Left Ventricle Internal Diameter Systole) [2, 9]: 2.998 ± 0.170 mm
LVPWD (Left Ventricle Posterior Wall Thickness Diastole) [2, 9]: 0.618 ± 0.013 mm
LVPWS (Left Ventricle Posterior Wall Thickness Systole) [2, 9]: 0.753 ± 0.013 mm
scar size (fibrosis quantification) [3]: significant reduction in scar size

Reference: patent US11813239B2, “Compositions and methods for improving cardiac structure and/or function” (Wisconsin Alumni Research Foundation, priority 2020, dated 2023)
